Like-named read-outs stand apart in the source and are kept apart here. Where a SMILES comes first, the peptide text is derived from it. [ ]: non-standard residue; d: D form. ξ: configuration not given here. ξLac(3-iPr) = CC(C)CC(O)C(=O)O; NMeV = CN[CH](C(=O)O)C(C)C; NMeA = CN[CH](C)C(=O)O; βAla = NCCC(=O)O
Tests used:
Zika virus = experiment: Zika viral production assay (infectious viral titer assay on Vero cells); assay type: cell-based; details: read-out: Anti-ZIKV activity IC50
dengue virus = experiment: Western blot analysis of viral protein levels in dengue virus-infected cells; assay type: cell-based
Protocol: These 19 compounds were further validated for antiviral activity by a Zika viral production assay and also by analyzing protein production via Western blot in dengue virus-infected cells. Human glioblastoma cells were treated with individual compounds for 1 hour prior to infection with Zika virus or dengue virus for 24 hours. After 24 hours, cellular lysate was harvested for Western blot analysis of viral protein levels (DENV infection), or supernatant collected and used to infect Vero cells in an infectious viral titer assay (ZIKV infection).

[1] = Zika virus, human glioblastoma cells treated 1 hour prior to infection, 24 hours, supernatant titered on Vero cells, values in E-notation, unit inferred
[2] = 1 uM, SNB-19 human glioblastoma cells, compound 1 hour prior to infection, 24 hours infection, Western blot of viral protein
[3] = 10 uM, SNB-19 human glioblastoma cells, compound 1 hour prior to infection, 24 hours infection, Western blot of viral protein
[4] = Zika virus, human glioblastoma cells treated 1 hour prior to infection, 24 hours, supernatant titered on Vero cells, μM

## CCCOc1ccc2nc(NC(=O)OC)[nH]c2c1 [NCGC00018238-09, methyl (6-propoxy-1H-benzo[d]imidazol-2 - yl)carbamate]
Zika virus; [1]
  IC50: 0.000233 µM
Dengue virus; [2]
  Anti-DENV Activity at 1 uM (SNB-19 cells): No
Dengue virus; [3]
  Anti-DENV Activity at 10 uM (SNB-19 cells): No

## COc1cc2c(c(OC)c1OC)-c1ccc(OC)c(=O)cc1[C@@H](NC(C)=O)CC2 [NCGC00025125-18, N-[(7S)-1,2,3,10-tetramethoxy-9-oxo-6,7-dihydro-5H-benzo[a]heptalen-7-yl]acetamide]
Dengue virus; [2]
  Anti-DENV Activity at 1 uM (SNB-19 cells): No
Dengue virus; [3]
  Anti-DENV Activity at 10 uM (SNB-19 cells): No

## COc1ccccc1-c1nnc2sc(-c3ccc(N(C)C)cc3)nn12 [NCGC00071621-03, 4-(3-(2-methoxyphenyl)-[1,2,4]triazolo[3,4-b][1,3,4]thiadiazol-6-yl)-N,N-dimethylaniline]
Zika virus; Zika virus, Vero
  IC50: > 30 µM
Dengue virus; 1 uM
  Anti-DENV Activity at 1 uM (SNB-19 cells): No
Dengue virus; 10 uM
  Anti-DENV Activity at 10 uM (SNB-19 cells): No

## O=C(Nc1cccnc1)c1cccs1 [NCGC00072088-02, N-(pyridin-3-yl)thiophene-2-carboxamide]
Zika virus; [1]
  IC50: 2.35 µM
Dengue virus; [2]
  Anti-DENV Activity at 1 uM (SNB-19 cells): No
Dengue virus; [3]
  Anti-DENV Activity at 10 uM (SNB-19 cells): Yes

## CCOc1ccc(N2C(=O)c3[nH]nc(-c4cccs4)c3C2c2cccc(F)c2)cc1 (centres unmarked) [NCGC00102779-01, 5-(4-ethoxyphenyl)-4-(3-fluorophenyl)-3-(thiophen-2-yl)-4,5-dihydropyrrolo[3,4-c]pyrazol-6(lH)-one]
Zika virus; [1]
  IC50: 9.24 µM
Dengue virus; [2]
  Anti-DENV Activity at 1 uM (SNB-19 cells): No
Dengue virus; [3]
  Anti-DENV Activity at 10 uM (SNB-19 cells): No

## COCCn1c(=O)[nH]c2cc(C(=O)NCc3ccccc3Cl)ccc2c1=O [NCGC00104879-01, N-(2-chlorobenzyl)-3-(2-methoxyethyl)-2,4-dioxo-1,2,3,4-tetrahydroquinazoline-7-carboxamide]
Zika virus; [4]
  IC50: > 30 µM
Dengue virus; [2]
  Anti-DENV Activity at 1 uM (SNB-19 cells): No
Dengue virus; [3]
  Anti-DENV Activity at 10 uM (SNB-19 cells): No

## COc1cc(C2CC(=O)Nc3cc4c(cc32)OCCO4)cc(Br)c1OC (centres unmarked) [NCGC00107055-01, 9-(3-bromo-4,5-dimethoxyphenyl)-2,3,8,9-tetrahydro-[1,4]dioxino[2,3-g]quinolin-7(6H)-one]
Zika virus; [1]
  IC50: 0.0285 µM
Dengue virus; [2]
  Anti-DENV Activity at 1 uM (SNB-19 cells): No
Dengue virus; [3]
  Anti-DENV Activity at 10 uM (SNB-19 cells): No

## CCOC(=O)c1ccc(N2C(=O)c3[nH]nc(-c4ccc(OC)cc4)c3C2c2ccc(C)cc2)cc1 (centres unmarked) [NCGC00108525-01, ethyl 4-(3-(4-methoxyphenyl)-6-oxo-4-(p-tolyl)-4,6-dihydropyrrolo[3,4-c]pyrazol-5(1H)-yl)benzoate]
Zika virus; Zika virus, Vero
  IC50: 0.137 µM
Dengue virus; [2]
  Anti-DENV Activity at 1 uM (SNB-19 cells): No
Dengue virus; [3]
  Anti-DENV Activity at 10 uM (SNB-19 cells): Yes

## CCOC(=O)c1ccc(N2C(=O)c3[nH]nc(-c4ccco4)c3C2c2ccc(C)cc2)cc1 (centres unmarked) [NCGC00108581-01, ethyl 4-(3-(furan-2-yl)-6-oxo-4-(p-tolyl)-4,6-dihydropyrrolo[3,4-c]pyrazol-5(1H)-yl)benzoate]
Zika virus; [1]
  IC50: 2.42 µM
Dengue virus; [2]
  Anti-DENV Activity at 1 uM (SNB-19 cells): No
Dengue virus; [3]
  Anti-DENV Activity at 10 uM (SNB-19 cells): Yes

## CC1=Nc2cc(C(=O)NCc3ccccc3Cl)ccc2Sc2c(C)ccc(C)c21 [NCGC00112058-01, N-(2-chlorobenzyl)-1,4,11-trimethyldibenzo[b,f][1,4]thiazepine-8-carboxamide]
Zika virus; [4]
  IC50: > 30 µM
Dengue virus; [2]
  Anti-DENV Activity at 1 uM (SNB-19 cells): No
Dengue virus; [3]
  Anti-DENV Activity at 10 uM (SNB-19 cells): No

## COC(=O)c1cc2occc2n1Cc1nc(-c2ccc(C)cc2)oc1C [NCGC00113159-01, methyl 4-[[5-methyl-2-(4-methylphenyl)-1,3-oxazol-4-yl]methyl]furo[3,2-b]pyrrole-5 - carboxylate]
Zika virus; [4]
  IC50: > 30 µM
Dengue virus; [2]
  Anti-DENV Activity at 1 uM (SNB-19 cells): No
Dengue virus; [3]
  Anti-DENV Activity at 10 uM (SNB-19 cells): No

## CC(C)(C)c1ccc(C(=O)Nc2ccc3c(c2)CCCN3C(=O)c2cccs2)cc1 [NCGC00131231-01, 4-(tert-butyl)-N-(1-(thiophene-2-carbonyl)-1,2,3,4-tetrahydroquinolin-6-yl)benzamide]
Zika virus; [1]
  IC50: 7.6 µM
Dengue virus; [2]
  Anti-DENV Activity at 1 uM (SNB-19 cells): No
Dengue virus; [3]
  Anti-DENV Activity at 10 uM (SNB-19 cells): No

## CCC(C)C1NC(=O)C2CCCN2C(=O)C(CC(C)C)OC(=O)CCNC(=O)C(C)N(C)C(=O)C(C(C)C)N(C)C1=O (centres unmarked) [NCGC00169957-03, 3-(sec-butyl)-16-isobutyl-6-isopropyl-5,8,9-trimethyldodecahydropyrrolo[1,2-d][l]oxa[4,7,10,13,16] pentaazacyclononadecine-1,4,7,10,14,17(11H,16H)-hexaone] (cyclo([ξLac(3-iPr)]PI[NMeV][NMeA][βAla]); configuration not given here)
Zika virus; Zika virus, Vero
  IC50: 0.613 µM
Dengue virus; 1 uM
  Anti-DENV Activity at 1 uM (SNB-19 cells): No
Dengue virus; 10 uM
  Anti-DENV Activity at 10 uM (SNB-19 cells): Yes

## CC(=O)OC[C@]12CCC(C)=C[C@H]1O[C@@H]1[C@H](O)[C@@H](OC(C)=O)[C@@]2(C)[C@]12CO2 [NCGC00179895-03, ((2S,2′R,3′R,4′S,5′S,5a′R,9a′R)-4′-acetoxy-3′-hydroxy-5′,8′-dimethyl-2′,3′,4′,5′,7′,9a′-hexahydrospiro[oxirane-2,10′-[2,5]methanobenzo[b]oxepin]-5a′(6′H) - yl)methyl acetate]
Dengue virus
  Anti-DENV Activity at 1 uM (SNB-19 cells): Yes
  Anti-DENV Activity at 10 uM (SNB-19 cells): Yes

## O=c1nc[nH]c2c1ccn2C1OC(CO)C(O)C1O (centres unmarked) [NCGC00246910-02, 7-(3,4-dihydroxy-5-(hydroxymethyl)tetrahydrofuran-2-yl)-1,7-dihydro-4H-pyrrolo[2,3-d]pyrimidin-4-one]
Zika virus; [1]
  IC50: 0.27 µM
Dengue virus; [2]
  Anti-DENV Activity at 1 uM (SNB-19 cells): No
Dengue virus; [3]
  Anti-DENV Activity at 10 uM (SNB-19 cells): Yes

## O=c1[nH]c(=O)n(C2C[C@@H](O)[C@@H](CO)O2)cc1F (stereo partly drawn) [NCGC00263862-02, 5-fluoro-l-((4R,5R)-4-hydroxy-5-(hydroxymethyl)tetrahydrofuran-2-yl)pyrimidine-2,4(1H,3H)-dione]
Zika virus; [1]
  IC50: 0.0165 µM
Dengue virus; [2]
  Anti-DENV Activity at 1 uM (SNB-19 cells): No
Dengue virus; [3]
  Anti-DENV Activity at 10 uM (SNB-19 cells): No

## O=C1N[C@@H]2C(=C[C@H](O)[C@@H](O)[C@H]2O)c2cc3c(c(O)c21)OCO3 [NCGC00357393-02, (2S,3R,4S,4aR)-2,3,4,7-tetrahydroxy-3,4,4a,5-tetrahydro-[1,3]dioxolo[4,5-j] phenanthridin-6(2H)-one]
Zika virus
  IC50: 0.000674 µM
Dengue virus; 1 uM
  Anti-DENV Activity at 1 uM (SNB-19 cells): Yes
Dengue virus; 10 uM
  Anti-DENV Activity at 10 uM (SNB-19 cells): Yes

## CC[C@H](C)[C@@H]([C@@H](CC(=O)N1CCC[C@H]1[C@H](OC)[C@@H](C)C(=O)N[C@@H](Cc1ccccc1)c1nccs1)OC)N(C)C(=O)[C@@H](NC(=O)[C@H](C(C)C)N(C)C)C(C)C [NCGC00378623-01, (S)-2-((S)-2-(dimethylamino)-3-methylbutanamido)-N-((3R,4S,5S)-3-methoxy-1-((S)-2-((1R,2R)-1-methoxy-2-methyl-3-oxo-3-(((S)-2-phenyl-1-(thiazol-2-yl)ethyl)amino)propyl)pyrrolidin-1-yl)-5-methyl-1-oxoheptan-4-yl)-N,3-dimethylbutanamide]
Dengue virus; [2]
  Anti-DENV Activity at 1 uM (SNB-19 cells): No
Dengue virus; [3]
  Anti-DENV Activity at 10 uM (SNB-19 cells): No

## CC(=O)OC[C@]12C[C@H](OC(=O)CC(C)C)C(C)=C[C@H]1O[C@@H]1[C@H](O)[C@@H](OC(C)=O)[C@@]2(C)[C@]12CO2 [NCGC00387651-01, (2S,2′R,3′R,4′S,5′S,5a′R,7′S,9a′R)-4′-acetoxy-5a′-(acetoxymethyl)-3′-hydroxy-5′,8′-dimethyl-2′,3′,4′,5′,5a′,6′,7′,9a′-octahydrospiro[oxirane-2,10′-[2,5]methanobenzo[b]oxepin]-7′-yl 3 - methylbutanoate]
Dengue virus
  Anti-DENV Activity at 1 uM (SNB-19 cells): Yes
  Anti-DENV Activity at 10 uM (SNB-19 cells): Yes

— patent publication US11903929B2, “Method for inhibiting dengue virus infection” (FLORIDA STATE UNIVERSITY RESEARCH FOUNDATION, INC., priority 2018, dated 2024)
